Assays:
[1] = biological target: HPTP-β (Homo sapiens (Human), UniProt P23467); test: HPTP-β inhibitory activity (IC50); type: biochemical
[2] = tested on: intraocular pressure; test: Intraocular pressure, Compound 1 with sham or ranibizumab, Months 1-3 (FIG. 2, TABLE 1); type: in vivo
Procedure: The difference in IOP was determined relative to a pre-treatment baseline (Base) at months 1, 2, and 3 (M1-M3). Intraocular pressure was determined in the study eye in millimeters of mercury (mmHg). […] The difference in IOP was determined relative to a pre-treatment Baseline at Months 1, 2 and 3. Intraocularpressure was determined in the study eye/fellow eye in mmHg.

Sequence of HPTP-β (P23467 23-1997): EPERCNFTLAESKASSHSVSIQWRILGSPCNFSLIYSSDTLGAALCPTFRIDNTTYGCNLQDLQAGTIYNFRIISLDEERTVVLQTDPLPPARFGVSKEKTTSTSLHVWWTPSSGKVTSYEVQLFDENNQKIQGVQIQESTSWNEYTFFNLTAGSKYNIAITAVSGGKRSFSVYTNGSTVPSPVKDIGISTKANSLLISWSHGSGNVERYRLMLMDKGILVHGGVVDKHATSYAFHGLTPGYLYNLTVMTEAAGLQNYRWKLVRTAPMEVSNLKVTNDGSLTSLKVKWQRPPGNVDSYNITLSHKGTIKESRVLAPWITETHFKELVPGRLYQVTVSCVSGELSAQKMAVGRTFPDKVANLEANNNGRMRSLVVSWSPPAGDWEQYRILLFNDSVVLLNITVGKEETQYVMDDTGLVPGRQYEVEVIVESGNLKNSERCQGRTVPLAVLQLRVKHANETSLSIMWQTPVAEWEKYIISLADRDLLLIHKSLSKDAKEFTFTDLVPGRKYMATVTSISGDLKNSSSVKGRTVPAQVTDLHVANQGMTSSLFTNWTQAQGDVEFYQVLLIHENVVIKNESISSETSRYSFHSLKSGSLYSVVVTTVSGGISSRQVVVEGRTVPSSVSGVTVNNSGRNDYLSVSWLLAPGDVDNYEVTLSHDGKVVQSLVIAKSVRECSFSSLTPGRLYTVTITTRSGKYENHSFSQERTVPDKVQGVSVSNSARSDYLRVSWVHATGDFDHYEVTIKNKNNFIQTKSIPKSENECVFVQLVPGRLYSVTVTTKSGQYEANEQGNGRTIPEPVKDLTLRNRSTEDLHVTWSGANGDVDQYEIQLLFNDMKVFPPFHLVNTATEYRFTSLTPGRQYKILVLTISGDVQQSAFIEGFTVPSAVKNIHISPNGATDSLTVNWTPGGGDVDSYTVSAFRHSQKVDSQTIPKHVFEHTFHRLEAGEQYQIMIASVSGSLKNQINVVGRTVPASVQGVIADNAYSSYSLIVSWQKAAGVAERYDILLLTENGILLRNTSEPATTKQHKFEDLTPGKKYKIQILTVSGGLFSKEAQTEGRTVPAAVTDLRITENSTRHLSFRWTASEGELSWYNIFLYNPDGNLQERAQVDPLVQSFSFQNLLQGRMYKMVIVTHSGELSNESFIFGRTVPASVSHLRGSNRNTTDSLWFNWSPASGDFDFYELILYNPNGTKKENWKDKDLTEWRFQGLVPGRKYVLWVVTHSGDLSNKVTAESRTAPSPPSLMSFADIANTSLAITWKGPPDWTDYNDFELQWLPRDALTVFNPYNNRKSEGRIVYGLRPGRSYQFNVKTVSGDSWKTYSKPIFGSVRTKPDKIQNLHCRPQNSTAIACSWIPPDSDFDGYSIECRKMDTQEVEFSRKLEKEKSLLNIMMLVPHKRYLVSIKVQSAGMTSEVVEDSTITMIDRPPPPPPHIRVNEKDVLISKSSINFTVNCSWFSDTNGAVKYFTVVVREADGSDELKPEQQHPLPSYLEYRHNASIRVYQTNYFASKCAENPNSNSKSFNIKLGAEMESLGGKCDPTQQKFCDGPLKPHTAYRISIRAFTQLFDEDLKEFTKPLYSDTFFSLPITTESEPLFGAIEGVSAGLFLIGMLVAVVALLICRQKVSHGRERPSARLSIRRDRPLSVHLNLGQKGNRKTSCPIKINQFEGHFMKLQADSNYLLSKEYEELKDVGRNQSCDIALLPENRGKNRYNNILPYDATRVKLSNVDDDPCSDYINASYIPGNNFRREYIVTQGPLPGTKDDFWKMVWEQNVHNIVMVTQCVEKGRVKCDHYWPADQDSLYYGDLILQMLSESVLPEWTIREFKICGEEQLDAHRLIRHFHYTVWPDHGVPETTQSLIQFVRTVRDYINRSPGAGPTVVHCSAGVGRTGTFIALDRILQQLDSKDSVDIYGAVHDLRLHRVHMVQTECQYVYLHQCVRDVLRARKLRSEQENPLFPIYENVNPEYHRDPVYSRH

Compound: CCc1csc([C@H](Cc2ccc(NS(=O)(=O)O)cc2)NC(=O)[C@H](CNC(=O)OC(C)(C)C)Cc2ccccc2)n1 [AA3]
- IC50 [1]: 31 nM

Compound: COC(=O)N[C@@H](Cc1ccccc1)C(=O)N[C@@H](Cc1ccc(NS(=O)(=O)O)cc1)c1nc(-c2ccccc2)cs1 [AA21]
- IC50 [1]: < 0.002 nM

Compound: CCc1csc([C@H](Cc2ccc(NS(=O)(=O)O)cc2)NC(=O)[C@H](CC(C)C)NC(=O)OC(C)(C)C)n1 [AA42]
- IC50 [1]: 6 nM

Compound: CC(C)(C)OC(=O)N[C@@H](Cc1ccc(NS(=O)(=O)O)cc1)c1csc(OC(=O)C(C)(C)C)n1 [AA71]
- IC50 [1]: 555 nM

Compound: ranibizumab [placebo + RBZ]
- IOP, fellow eye ([2]; Baseline (pre-treatment)): 15.8 mmHg
- IOP, study eye ([2]; Baseline (pre-treatment)): 15.2 mmHg
- IOP, fellow eye ([2]; Month 1): 15.5 mmHg
- IOP, study eye ([2]; Month 1): 15.0 mmHg
- IOP, fellow eye ([2]; Month 2): 15.5 mmHg
- IOP, study eye ([2]; Month 2): 15.0 mmHg
- IOP, fellow eye ([2]; Month 3): 15.7 mmHg
- IOP, study eye ([2]; Month 3): 15.3 mmHg

From patent US11666558B2, “Methods of treating intraocular pressure with activators of Tie-2” (EyePoint Pharmaceuticals, Inc., priority 2015, dated 2023)
